We go through 13 molecules from patent US6407108B1, “1,2,4-triazolo(4,3-b)pyrido(3,2-d)pyridazine derivatives and pharmaceutical compositions containing them” (Almirall Prodesfarma, S.A., priority 1997, dated 2002).

The structures appear in SMILES notation.

A word on the IC50: it is the concentration needed to halve the response being measured. The term melting point denotes the temperature, or range, at which the solid turns liquid.

The target of the first data set is cyclic nucleotide phosphodiesterase 4 from guinea-pig hearts. In words: Inhibition of cyclic nucleotide phosphodiesterase 4 (96-well microtiter plates, Verghese et al.). The class given is biochemical. Conditions: PDE 4 from guinea-pig hearts; read-out: PDE4 IC50. Here is the method: The inhibition of cyclic nucleotide phosphodiesterase 4 from guinea-pig hearts was performed using 96-well microtiter plates as described by Verghese et al., (Molecular Pharmacology, 47, 1164-1171 (1995)).
Take `O=[N+]([O-])c1cccc(-c2nn3c(CC4CC4)nnc3c3cccnc23)c1` [Compound 112, 3-cyclopropylmethyl-6-(3-nitrophenyl)-1,2,4-triazolo[4,3-b]pyrido[3,2-d]pyridazine]: the IC50 turned out to be 700 nM.

As to `CC(C)Cc1nnc2c3cccnc3c(-c3cccc(Cl)c3)nn12` [Compound 55], the IC50 turned out to be 200 nM. The same measure, in the same setting: the value for `CC(C)Cc1nnc2c3cccnc3c(-c3cccc([N+](=O)[O-])c3)nn12` [Compound 109] was 40 nM. The same measure, in the same setting: the value for `c1ccc(-c2nn3c(C4CC4)nnc3c3cccnc23)cc1` [Compound 12, 3-cyclopropyl-6-phenyl-1,2,4-triazolo[4,3-b]pyrido[3,2-d]pyridazine] was 3000 nM; that for `Clc1cccc(-c2nn3c(CC4CCC4)nnc3c3cccnc23)c1` [Compound 61] was 2000 nM; that for `Clc1cccc(-c2nn3c(CC4CC4)nnc3c3cccnc23)c1` [Compound 60] was 100 nM. Regarding `Fc1cccc(-c2nn3c(CC4CCCC4)nnc3c3cccnc23)c1` [Compound 47], the 50% inhibitory concentration (IC50) was determined as 700 nM. On the same count and under the same terms, under `CCCCc1nnc2c3cccnc3c(-c3ccccc3)nn12` [Compound 6] stands 2000 nM; under `CC(C)Cc1nnc2c3ccccc3c(-c3ccccc3)nn12` [Compound A, 3-isobutyl-6-phenyl-1,2,4-triazolo[3,4-a]phthalazine, reference compound], 10000 nM. Still for that read-out and setting: under `CC(C)Cc1nnc2c3cccnc3c(-c3ccccc3)nn12` [Compound 7] stands 300 nM; under `CC(C)Cc1nnc2c3cccnc3c(-c3ccc(F)cc3)nn12` [Compound 31, 6-(4-fluorophenyl)-3-isobutyl-1,2,4-triazolo[4,3-b]pyrido[3,2-d]pyridazine], 200 nM; under `O=[N+]([O-])c1cccc(-c2nn3c(CC4CCC4)nnc3c3cccnc23)c1` [Compound 113, 3-cyclobutylmethyl-6-(3-nitrophenyl)-1,2,4-triazolo[4,3-b]pyrido[3,2-d]pyridazine], 200 nM.

Test system in the next data set: not given
Test: not given
Conditions: not given
With `O=[N+]([O-])c1cccc(-c2nn3c(CC4CC4)nnc3c3cccnc23)c1` [Compound 112, 3-cyclopropylmethyl-6-(3-nitrophenyl)-1,2,4-triazolo[4,3-b]pyrido[3,2-d]pyridazine], the melting point worked out at 164 °C. The same measure, in the same setting: the value for `CC(C)Cc1nnc2c3cccnc3c(-c3cccc(Cl)c3)nn12` [Compound 55] was 113 °C. Same read-out and setting: under `CC(C)Cc1nnc2c3cccnc3c(-c3cccc([N+](=O)[O-])c3)nn12` [Compound 109] stands 178 °C. With `c1ccc(-c2nn3c(C4CC4)nnc3c3cccnc23)cc1` [Compound 12, 3-cyclopropyl-6-phenyl-1,2,4-triazolo[4,3-b]pyrido[3,2-d]pyridazine], the melting point was 244.3 °C.

In turn, `Clc1cccc(-c2nn3c(CC4CCC4)nnc3c3cccnc23)c1` [Compound 61] registered a melting point of 156 °C. The same measure, in the same setting: the value for `Clc1cccc(-c2nn3c(CC4CC4)nnc3c3cccnc23)c1` [Compound 60] was 136 °C. The same measure, in the same setting: the value for `CC(C)(C)c1nnc2c3cccnc3c(-c3ccccc3)nn12` [Compound 8, 3-t-butyl-6-phenyl-1,2,4-triazolo[4,3-b]pyrido[3,2-d]pyridazine] was 188.1 °C. The same measure, in the same setting: the value for `Fc1cccc(-c2nn3c(CC4CCCC4)nnc3c3cccnc23)c1` [Compound 47] was 145 °C; that for `CCCCc1nnc2c3cccnc3c(-c3ccccc3)nn12` [Compound 6] was 162.9 °C; that for `CC(C)Cc1nnc2c3cccnc3c(-c3ccccc3)nn12` [Compound 7] was 179.7 °C.

Take `CC(C)Cc1nnc2c3cccnc3c(-c3ccc(F)cc3)nn12` [Compound 31, 6-(4-fluorophenyl)-3-isobutyl-1,2,4-triazolo[4,3-b]pyrido[3,2-d]pyridazine]: the melting point amounted to 135 °C. On the same count and under the same terms, under `O=[N+]([O-])c1cccc(-c2nn3c(CC4CCC4)nnc3c3cccnc23)c1` [Compound 113, 3-cyclobutylmethyl-6-(3-nitrophenyl)-1,2,4-triazolo[4,3-b]pyrido[3,2-d]pyridazine] stands 150 °C.
